Calls of active or inactive are those of the source. No cut-off for these calls is given here.

For this assay, the system named is Mus musculus. Kind of assay: Anti-inflammatory activity in TPA-induced mouse ear edema model assessed as inhibition of ear swelling at 0.6 to 1.4 umol applied topically on ear pretreated for 0.5 hrs followed by TPA application and measured after 7 hrs. It counts as functional, organism-based.
For `CC(C)=CC/C=C(\C)C(O)Cc1cc(C(=O)O)cc(CC=C(C)C)c1O` (stereo not drawn), the inhibition entry is “Active”.

As to `COc1ccc2c(c1)c(CC(=O)O)c(C)n2C(=O)c1ccc(Cl)cc1`, the inhibition result was “Active”. Under `CC(C)=CC/C=C(\C)C(O)Cc1cc(Br)cc(CC=C(C)C)c1O` (stereo not drawn) stands “Active”.

For the origin of these results see ChEMBL document CHEMBL4371090, “Chemical Synthesis Study Establishes the Correct Structure of the Potent Anti-Inflammatory Agent Myrsinoic Acid F” (J Nat Prod, 2019).
